Where a name gives a salt, the structure may show the parent alone.
Legend:
[1] = molecular target: T1, human M3 muscarinic receptor (Homo sapiens, UniProt P20309); assay: Competition binding assays to human M3 muscarinic receptor ([3H]-NMS displacement, membrane fractions); conditions: competition with 1 nM [3H]-NMS
T1 construct: expressed in transfected cells; host or cells: CHO-K1
Experimental: Membrane fractions of human M3 muscarinic receptor were purchased from PerkinElmer, Inc. and stored at −80° C. until use. Phosphate buffered saline (PBS(−), Invitrogen, Co.) was used as assay buffer. The membrane fractions of human M3 muscarinic receptor (10-15 μg of membrane protein) and 1 nM L-[N-methyl-3H]scopolamine methyl chloride ([3H]—NMS) (NET636, 2.59 TBq/mmol, PerkinElmer, Inc.) were added to a final volume of 100 μL and incubated for 2 hours at room temperature (total binding). […] The amount of nonspecific binding was determined in the presence of 5 μM atoropine. […] The filter plates were washed three times with a washing solution (50 mM Tris hydrochloric acid pH 7.4, 0.9% sodium chloride) to remove unbound radioactivity. The plates were then dried and 40 μL Microscint-20 liquid TopCount microplate scintillation cocktail (PerkinElmer Inc.) was added and plates were counted in a Packard TopCount liquid scintillation counter (PerkinElmer, Inc.). The percentage of the binding inhibition by the test compound was calculated according to the following formula. (%)Percentage of binding inhibition=[(Radioactivity of test compound-added sample−Amount of nonspecific binding)/(Amount of total binding−Amount of nonspecific binding)]×100 […]

[2] = molecular target: T2, human β2 adrenergic receptor (Homo sapiens, UniProt P07550); assay: Whole-cell cAMP Flashplate assay using CHO-K1 cells stably expressing human β2 adrenergic receptor; format: cell-based; conditions: cAMP production
T2 construct: expressed in transfected cells; host or cells: CHO-K1
T2 sequence (P07550 whole entry): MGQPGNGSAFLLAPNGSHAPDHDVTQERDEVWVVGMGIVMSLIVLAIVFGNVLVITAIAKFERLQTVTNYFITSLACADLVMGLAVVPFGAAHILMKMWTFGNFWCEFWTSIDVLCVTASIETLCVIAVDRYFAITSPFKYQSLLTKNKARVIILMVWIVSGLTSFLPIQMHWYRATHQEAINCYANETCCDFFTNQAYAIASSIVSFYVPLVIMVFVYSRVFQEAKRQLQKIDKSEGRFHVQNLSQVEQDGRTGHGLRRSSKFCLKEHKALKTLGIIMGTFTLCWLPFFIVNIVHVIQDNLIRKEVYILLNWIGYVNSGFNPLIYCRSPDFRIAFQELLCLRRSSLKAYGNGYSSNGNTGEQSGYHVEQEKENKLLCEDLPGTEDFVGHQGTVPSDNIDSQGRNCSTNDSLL

T1 sequence (P20309 whole entry): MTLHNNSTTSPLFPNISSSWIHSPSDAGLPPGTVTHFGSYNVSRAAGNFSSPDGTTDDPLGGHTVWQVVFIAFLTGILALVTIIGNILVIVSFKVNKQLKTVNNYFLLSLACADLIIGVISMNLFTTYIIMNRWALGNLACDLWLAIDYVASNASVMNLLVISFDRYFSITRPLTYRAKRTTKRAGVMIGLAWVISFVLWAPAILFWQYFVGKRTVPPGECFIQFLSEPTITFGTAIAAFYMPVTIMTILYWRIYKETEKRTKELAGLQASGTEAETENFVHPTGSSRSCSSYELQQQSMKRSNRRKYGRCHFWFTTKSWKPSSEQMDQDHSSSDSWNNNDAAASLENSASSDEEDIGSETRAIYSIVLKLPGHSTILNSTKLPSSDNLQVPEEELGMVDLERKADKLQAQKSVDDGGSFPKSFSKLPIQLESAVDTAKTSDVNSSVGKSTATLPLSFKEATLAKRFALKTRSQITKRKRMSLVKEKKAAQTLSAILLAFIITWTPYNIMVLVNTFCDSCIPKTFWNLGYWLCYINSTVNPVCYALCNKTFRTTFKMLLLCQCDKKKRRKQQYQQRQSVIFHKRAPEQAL

Row | IC50 [1] [nM] | EC50 [2] [nM] | SMILES
1 | < 10 | 0.3 | COc1cc(NC(=O)CCCCc2ccc(-c3ccccc3)c(NC(=O)OC3CC[N+](C)(C)CC3)c2)c(Cl)cc1CNC[C@H](O)c1ccc(O)c2[nH]c(=O)ccc12 [Example 51, 4-({[5-(4-{[2-chloro-4-({[(2R)-2-hydroxy-2-(8-hydroxy-2-oxo-1,2-dihydroquinolin-5-yl)ethyl]amino}methyl)-5-methoxyphenyl]carbamoyl}butyl)-2-phenylphenyl]carbamoyl}oxy)-1,1-dimethylpiperidin-1-ium trifluoroacetate]
2 | < 10 | 1.3 | C[N+]1(C)CCC(OC(=O)Nc2cc(CCC(=O)Nc3ccc(CNC[C@H](O)c4ccc(O)c5[nH]c(=O)ccc45)cc3)ccc2-c2ccccc2)CC1 [Example 1, 4-({[5-(2-{[4-({[(2R)-2-hydroxy-2-(8-hydroxy-2-oxo-1,2-dihydroquinolin-5-yl)ethyl]amino}methyl)phenyl]carbamoyl}ethyl)-2-phenylphenyl]carbamoyl}oxy)-1,1-dimethylpiperidin-1-ium trifluoroacetate]
